# Data published in article PMC9097471, “Development of Selective Phosphatidylinositol 5-Phosphate 4-Kinase γ Inhibitors with a Non-ATP-competitive, Allosteric Binding Mode” (Journal of Medicinal Chemistry, 2022).
# Key:
# [1] = biological target: T1, PI5P4Kβ (Homo sapiens, UniProt P78356); set-up: method as in ref 30 (a number printed in a supplementary file, which may have a reference list of its own: not looked up in the article's list); conditions: 32P-ATP/PI5P incorporation, showed 'small but significant stimulation'; cited from earlier work
# T1 sequence (P78356 1-416): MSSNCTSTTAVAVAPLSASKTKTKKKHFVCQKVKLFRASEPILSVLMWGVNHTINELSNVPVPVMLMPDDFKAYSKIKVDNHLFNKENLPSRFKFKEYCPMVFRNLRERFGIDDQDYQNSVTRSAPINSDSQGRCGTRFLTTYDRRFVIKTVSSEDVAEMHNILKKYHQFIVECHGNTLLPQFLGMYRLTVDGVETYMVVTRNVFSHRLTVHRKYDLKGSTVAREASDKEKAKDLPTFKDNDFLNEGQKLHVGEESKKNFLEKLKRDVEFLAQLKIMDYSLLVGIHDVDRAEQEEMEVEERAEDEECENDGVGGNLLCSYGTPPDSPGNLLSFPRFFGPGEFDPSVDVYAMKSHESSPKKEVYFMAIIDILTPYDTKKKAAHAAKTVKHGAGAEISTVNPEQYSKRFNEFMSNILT
# [2] = biological target: TrkA (Homo sapiens, UniProt P04629); assay: Kinase panel, radiometric 33P filter binding; conditions: read-out: % activity remaining
# Source text: (§3) filter binding assay using 33P-g-ATPat the MRC PPU International Centre for Kinase Profiling, University of
# [3] = biological target: CK2 (Homo sapiens, UniProt P68400); assay: Kinase panel, radiometric 33P filter binding; conditions: read-out: % activity remaining
# CK2, sequence (P68400 whole entry): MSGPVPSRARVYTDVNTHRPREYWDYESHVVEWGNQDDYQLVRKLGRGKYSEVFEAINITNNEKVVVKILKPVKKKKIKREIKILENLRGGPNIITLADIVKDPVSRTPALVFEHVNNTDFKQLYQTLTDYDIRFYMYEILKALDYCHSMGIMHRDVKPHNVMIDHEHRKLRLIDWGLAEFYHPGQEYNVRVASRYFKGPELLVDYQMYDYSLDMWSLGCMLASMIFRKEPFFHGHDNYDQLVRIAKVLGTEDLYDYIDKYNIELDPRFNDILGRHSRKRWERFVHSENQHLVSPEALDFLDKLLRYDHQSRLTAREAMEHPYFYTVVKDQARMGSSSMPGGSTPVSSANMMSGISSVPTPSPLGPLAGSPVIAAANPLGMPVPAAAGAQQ
# Source text: as §3
# [4] = biological target: RSK1 (Homo sapiens, UniProt Q15418); assay: Kinase panel, radiometric 33P filter binding; conditions: read-out: % activity remaining
# Source text: as §3
# [5] = biological target: p38b MAPK (Homo sapiens, UniProt Q15759); assay: Kinase panel, radiometric 33P filter binding; conditions: read-out: % activity remaining
# p38b MAPK, sequence (Q15759 whole entry): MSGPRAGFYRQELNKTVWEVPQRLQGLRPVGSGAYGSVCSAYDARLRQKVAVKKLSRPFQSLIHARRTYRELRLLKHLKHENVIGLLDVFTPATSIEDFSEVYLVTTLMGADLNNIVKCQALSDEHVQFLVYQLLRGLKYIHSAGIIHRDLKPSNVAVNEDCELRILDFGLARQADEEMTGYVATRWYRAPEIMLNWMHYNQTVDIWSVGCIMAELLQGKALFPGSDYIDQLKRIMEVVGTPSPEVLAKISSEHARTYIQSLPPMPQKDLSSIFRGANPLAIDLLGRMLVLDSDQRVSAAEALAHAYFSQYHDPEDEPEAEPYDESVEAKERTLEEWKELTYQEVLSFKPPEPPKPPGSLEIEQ
# Source text: as §3
# [6] = biological target: Aurora A (Homo sapiens, UniProt O14965); assay: Kinase panel, radiometric 33P filter binding; conditions: read-out: % activity remaining
# Source text: as §3
# [7] = biological target: MARK1 (Homo sapiens, UniProt Q9P0L2); assay: Kinase panel, radiometric 33P filter binding; conditions: read-out: % activity remaining
# Source text: as §3
# [8] = biological target: ERK2 (Homo sapiens, UniProt P28482); assay: Kinase panel, radiometric 33P filter binding; conditions: read-out: % activity remaining
# ERK2, sequence (P28482 whole entry): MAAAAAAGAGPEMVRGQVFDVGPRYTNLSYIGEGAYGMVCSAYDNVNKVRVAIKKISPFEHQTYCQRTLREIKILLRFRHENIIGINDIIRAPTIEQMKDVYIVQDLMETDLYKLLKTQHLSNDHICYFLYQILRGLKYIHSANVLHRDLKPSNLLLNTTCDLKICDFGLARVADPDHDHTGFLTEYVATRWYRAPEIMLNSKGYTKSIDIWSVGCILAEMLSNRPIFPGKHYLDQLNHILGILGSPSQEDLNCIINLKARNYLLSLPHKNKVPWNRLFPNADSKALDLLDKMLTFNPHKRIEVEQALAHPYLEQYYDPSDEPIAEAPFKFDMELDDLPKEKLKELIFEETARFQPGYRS
# Source text: as §3
# [9] = biological target: IKKe (Homo sapiens, UniProt Q14164); assay: Kinase panel, radiometric 33P filter binding; conditions: read-out: % activity remaining
# Source text: as §3
# [10] = biological target: HER4 (Homo sapiens, UniProt Q15303); assay: Kinase panel, radiometric 33P filter binding; conditions: read-out: % activity remaining
# Source text: as §3
# [11] = biological target: LKB1 (Homo sapiens, UniProt Q15831); assay: Kinase panel, radiometric 33P filter binding; conditions: read-out: % activity remaining
# Source text: as §3
# [12] = biological target: TTBK2 (Homo sapiens, UniProt Q6IQ55); assay: Kinase panel, radiometric 33P filter binding; conditions: read-out: % activity remaining
# Source text: as §3
# [13] = biological target: OSR1 (Homo sapiens, UniProt O95747); assay: Kinase panel, radiometric 33P filter binding; conditions: read-out: % activity remaining
# [14] = biological target: ASK1 (Homo sapiens, UniProt Q99683); assay: Kinase panel, radiometric 33P filter binding; conditions: read-out: % activity remaining
# Source text: as §3
# [15] = biological target: TTK (Homo sapiens, UniProt P33981); assay: Kinase panel, radiometric 33P filter binding; conditions: read-out: % activity remaining
# Source text: as §3
# [16] = biological target: MST4 (Homo sapiens, UniProt Q9P289); assay: Kinase panel, radiometric 33P filter binding; conditions: read-out: % activity remaining
# MST4, sequence (Q9P289 whole entry): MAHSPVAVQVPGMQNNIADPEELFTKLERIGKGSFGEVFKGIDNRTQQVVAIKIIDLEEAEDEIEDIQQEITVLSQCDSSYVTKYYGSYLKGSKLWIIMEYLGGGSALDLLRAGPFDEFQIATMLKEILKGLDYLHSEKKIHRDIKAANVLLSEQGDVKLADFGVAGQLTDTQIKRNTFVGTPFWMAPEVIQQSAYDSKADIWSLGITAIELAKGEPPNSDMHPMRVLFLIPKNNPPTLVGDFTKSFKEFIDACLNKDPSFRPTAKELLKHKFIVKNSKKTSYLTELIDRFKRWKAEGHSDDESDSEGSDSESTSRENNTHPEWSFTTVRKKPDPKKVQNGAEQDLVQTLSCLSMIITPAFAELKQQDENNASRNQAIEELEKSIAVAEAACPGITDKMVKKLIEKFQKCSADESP
# [17] = biological target: S6K1 (Homo sapiens, UniProt P23443); assay: Kinase panel, radiometric 33P filter binding; conditions: read-out: % activity remaining
# Source text: as §3
# [18] = biological target: PIK4Ca (Homo sapiens, UniProt P42356); assay: Lipid kinase panel, ADP-Glo; format: biochemical
# Source text: (§1) Kinase % activity remaining s.d.
# (§2) Choline Kinase alpha 101.6 3.2
# [19] = biological target: PI3KA E545K +P85 (Homo sapiens, UniProt P42336, E545K); assay: Lipid kinase panel, ADP-Glo; format: biochemical; conditions: PI3KA E545K +P85, 10 μM
# Source text: as §1, §2
# [20] = biological target: PI3K beta (Homo sapiens, UniProt P42338); assay: Lipid kinase panel, ADP-Glo; format: biochemical
# Source text: as §1, §2
# [21] = biological target: SPHK1 (Homo sapiens, UniProt Q9NYA1); assay: Lipid kinase panel, ADP-Glo; format: biochemical; conditions: SPHK1, 10 μM
# SPHK1, sequence (Q9NYA1 whole entry, species assumed): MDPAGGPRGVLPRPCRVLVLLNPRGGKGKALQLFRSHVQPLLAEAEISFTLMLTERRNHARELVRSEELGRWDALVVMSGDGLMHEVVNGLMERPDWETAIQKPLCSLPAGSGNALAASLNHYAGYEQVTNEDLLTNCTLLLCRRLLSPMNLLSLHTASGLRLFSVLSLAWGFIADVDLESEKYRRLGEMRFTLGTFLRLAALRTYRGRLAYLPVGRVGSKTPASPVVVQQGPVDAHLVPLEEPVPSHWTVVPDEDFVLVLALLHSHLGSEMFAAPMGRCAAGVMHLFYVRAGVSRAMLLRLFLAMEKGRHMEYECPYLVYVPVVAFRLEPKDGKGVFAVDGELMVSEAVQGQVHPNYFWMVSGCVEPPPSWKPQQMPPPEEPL
# Source text: as §1, §2
# [22] = biological target: PI3K gamma (Homo sapiens, UniProt P48736); assay: Lipid kinase panel, ADP-Glo; format: biochemical
# PI3K gamma, sequence (P48736 whole entry, species assumed): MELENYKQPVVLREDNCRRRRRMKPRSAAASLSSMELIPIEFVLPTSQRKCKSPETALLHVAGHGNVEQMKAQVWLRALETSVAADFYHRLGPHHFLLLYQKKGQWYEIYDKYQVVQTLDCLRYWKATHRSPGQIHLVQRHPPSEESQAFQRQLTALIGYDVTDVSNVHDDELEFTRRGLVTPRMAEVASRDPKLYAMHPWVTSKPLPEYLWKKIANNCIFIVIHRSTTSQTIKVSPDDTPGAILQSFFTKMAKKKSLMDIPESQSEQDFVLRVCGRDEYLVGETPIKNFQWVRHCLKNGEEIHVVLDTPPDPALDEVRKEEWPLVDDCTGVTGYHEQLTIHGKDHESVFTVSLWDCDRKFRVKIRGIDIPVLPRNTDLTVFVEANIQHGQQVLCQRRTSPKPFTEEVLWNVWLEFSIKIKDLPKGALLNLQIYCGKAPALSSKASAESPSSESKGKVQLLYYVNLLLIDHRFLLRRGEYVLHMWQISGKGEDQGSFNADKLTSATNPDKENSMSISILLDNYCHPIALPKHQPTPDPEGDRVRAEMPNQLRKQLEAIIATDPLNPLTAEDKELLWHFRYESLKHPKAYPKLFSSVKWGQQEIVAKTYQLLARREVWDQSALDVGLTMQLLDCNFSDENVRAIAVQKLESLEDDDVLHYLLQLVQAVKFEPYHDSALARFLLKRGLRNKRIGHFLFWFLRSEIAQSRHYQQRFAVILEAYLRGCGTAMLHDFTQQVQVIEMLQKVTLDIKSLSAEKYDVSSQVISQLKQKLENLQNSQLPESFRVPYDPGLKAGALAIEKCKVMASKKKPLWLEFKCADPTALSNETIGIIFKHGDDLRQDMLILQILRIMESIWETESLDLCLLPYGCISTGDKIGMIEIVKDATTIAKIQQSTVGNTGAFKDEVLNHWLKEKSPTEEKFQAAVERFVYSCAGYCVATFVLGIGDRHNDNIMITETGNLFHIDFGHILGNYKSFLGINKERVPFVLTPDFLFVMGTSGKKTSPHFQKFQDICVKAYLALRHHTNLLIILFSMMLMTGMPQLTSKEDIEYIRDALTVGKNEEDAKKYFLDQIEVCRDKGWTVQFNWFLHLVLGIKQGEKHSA
# Source text: as §1, §2
# [23] = biological target: Choline Kinase alpha (Homo sapiens, UniProt P35790); assay: Lipid kinase panel, ADP-Glo; format: biochemical
# Source text: as §1, §2
# [24] = biological target: PI4K2a (Homo sapiens, UniProt Q9BTU6); assay: Lipid kinase panel, ADP-Glo; format: biochemical
# PI4K2a, sequence (Q9BTU6 whole entry, species assumed): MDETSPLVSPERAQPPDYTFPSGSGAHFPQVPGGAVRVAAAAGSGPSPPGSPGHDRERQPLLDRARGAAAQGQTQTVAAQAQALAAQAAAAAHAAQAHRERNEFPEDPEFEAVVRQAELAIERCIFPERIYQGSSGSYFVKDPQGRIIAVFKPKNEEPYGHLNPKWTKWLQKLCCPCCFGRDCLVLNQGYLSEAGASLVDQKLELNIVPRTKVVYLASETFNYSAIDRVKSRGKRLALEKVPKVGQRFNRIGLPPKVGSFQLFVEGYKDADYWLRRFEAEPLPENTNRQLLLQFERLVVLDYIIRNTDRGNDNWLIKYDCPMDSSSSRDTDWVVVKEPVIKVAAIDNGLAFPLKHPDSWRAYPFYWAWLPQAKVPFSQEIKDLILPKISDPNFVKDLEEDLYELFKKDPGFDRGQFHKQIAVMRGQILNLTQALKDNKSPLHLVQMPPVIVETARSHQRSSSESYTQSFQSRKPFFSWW
# Source text: as §1, §2
# [25] = biological target: PIP5K2a (Homo sapiens, UniProt P48426); assay: Lipid kinase panel, ADP-Glo; format: biochemical
# Source text: as §1, §2
# [26] = system: PI3Ka E524K +P85; assay: Lipid kinase panel, ADP-Glo; format: biochemical; conditions: PI3Ka E524K +P85, 10 μM
# Source text: as §1, §2
# [27] = biological target: SPHK2 (Homo sapiens, UniProt Q9NRA0); assay: Lipid kinase panel, ADP-Glo; format: biochemical; conditions: SPHK2, 10 μM
# Source text: as §1, §2
# [28] = biological target: DGK beta (Homo sapiens, UniProt Q9Y6T7); assay: Lipid kinase panel, ADP-Glo; format: biochemical
# Source text: as §1, §2
# [29] = biological target: PI3Kalpha (Homo sapiens, UniProt P42336); assay: Lipid kinase panel, ADP-Glo; format: biochemical
# Source text: as §1, §2
# [30] = biological target: Choline Kinase beta (Homo sapiens, UniProt Q9Y259); assay: Lipid kinase panel, ADP-Glo; format: biochemical
# Source text: as §1, §2
# [31] = biological target: DGK zeta (Homo sapiens, UniProt Q13574); assay: Lipid kinase panel, ADP-Glo; format: biochemical
# Source text: as §1, §2
# [32] = biological target: DGK gamma (Homo sapiens, UniProt P49619); assay: Lipid kinase panel, ADP-Glo; format: biochemical
# DGK gamma, sequence (P49619 whole entry, species assumed): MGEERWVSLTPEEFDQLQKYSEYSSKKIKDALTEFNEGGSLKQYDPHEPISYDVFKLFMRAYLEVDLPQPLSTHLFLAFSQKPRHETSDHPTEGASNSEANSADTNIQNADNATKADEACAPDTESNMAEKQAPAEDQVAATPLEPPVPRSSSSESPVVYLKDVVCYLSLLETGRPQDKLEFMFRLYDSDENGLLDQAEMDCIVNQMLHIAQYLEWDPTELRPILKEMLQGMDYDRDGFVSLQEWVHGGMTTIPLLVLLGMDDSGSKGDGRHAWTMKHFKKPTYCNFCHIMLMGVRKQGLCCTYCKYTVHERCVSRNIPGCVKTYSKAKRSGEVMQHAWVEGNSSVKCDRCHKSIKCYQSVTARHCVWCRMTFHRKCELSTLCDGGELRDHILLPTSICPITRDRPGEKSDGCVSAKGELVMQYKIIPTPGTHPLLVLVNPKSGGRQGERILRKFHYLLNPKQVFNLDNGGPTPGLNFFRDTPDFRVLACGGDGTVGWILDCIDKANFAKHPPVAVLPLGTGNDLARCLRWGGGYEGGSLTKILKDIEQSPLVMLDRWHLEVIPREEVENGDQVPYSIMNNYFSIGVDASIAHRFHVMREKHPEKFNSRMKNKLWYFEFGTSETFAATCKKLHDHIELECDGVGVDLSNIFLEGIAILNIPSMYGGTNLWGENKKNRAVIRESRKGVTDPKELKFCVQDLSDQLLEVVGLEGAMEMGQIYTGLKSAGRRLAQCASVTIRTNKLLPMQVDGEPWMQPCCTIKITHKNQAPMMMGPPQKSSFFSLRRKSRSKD
# Source text: as §1, §2
# [33] = biological target: CHK2 (Homo sapiens, UniProt O96017); assay: Kinase panel, radiometric 33P filter binding; conditions: read-out: % activity remaining
# CHK2, sequence (O96017 whole entry): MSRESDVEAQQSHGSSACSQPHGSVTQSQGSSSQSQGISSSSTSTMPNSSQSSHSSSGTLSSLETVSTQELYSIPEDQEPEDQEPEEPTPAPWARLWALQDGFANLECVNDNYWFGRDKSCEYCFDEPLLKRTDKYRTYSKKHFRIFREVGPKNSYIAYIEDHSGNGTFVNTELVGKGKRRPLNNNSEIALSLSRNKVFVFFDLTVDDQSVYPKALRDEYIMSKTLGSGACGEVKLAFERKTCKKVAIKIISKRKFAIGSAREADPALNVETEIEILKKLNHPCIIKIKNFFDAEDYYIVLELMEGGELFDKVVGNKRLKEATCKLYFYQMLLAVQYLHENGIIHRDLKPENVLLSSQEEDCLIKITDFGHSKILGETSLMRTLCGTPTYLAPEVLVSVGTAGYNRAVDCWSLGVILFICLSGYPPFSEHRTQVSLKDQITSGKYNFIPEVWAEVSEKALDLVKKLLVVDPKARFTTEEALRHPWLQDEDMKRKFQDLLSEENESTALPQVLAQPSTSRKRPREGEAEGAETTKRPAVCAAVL
# Source text: as §3
smiles,measurement,setting,value
"FC(F)(F)c1ccccc1-c1nc(NCc2cccs2)c2ccccc2n1 [Compound 1, NIH-12848, reference compound]",IC50,[1],> 100 µM
CC(C)c1ccccc1-c1nc(NCc2ccccn2)c2c(ccn2C)n1 [Compound 40],remaining activity at 10 µM,[2],100%
same,remaining activity at 10 µM,[3],90%
same,remaining activity at 10 µM,[4],99%
same,remaining activity at 10 µM,[5],94%
same,remaining activity at 10 µM,[6],94%
same,remaining activity at 10 µM,[7],88%
same,remaining activity at 10 µM,[8],98%
same,remaining activity at 10 µM,[9],98%
same,remaining activity at 10 µM,[10],112%
same,remaining activity at 10 µM,[11],94%
same,remaining activity at 10 µM,[12],114%
same,remaining activity at 10 µM,[13],120%
same,remaining activity at 10 µM,[14],116%
same,remaining activity at 10 µM,[15],94%
same,remaining activity at 10 µM,[16],110%
same,remaining activity at 10 µM,[17],95%
same,remaining activity at 10 µM,[18],81.1%
same,remaining activity at 10 µM,[19],91.7%
same,remaining activity at 10 µM,[20],111%
same,remaining activity at 10 µM,[21],91.8%
same,remaining activity at 10 µM,[22],103%
same,remaining activity at 10 µM,[23],102%
same,remaining activity at 10 µM,[24],93.5%
same,remaining activity at 10 µM,[25],100%
same,% activity remaining,[26],102.0%
same,remaining activity at 10 µM,[27],83.8%
same,remaining activity at 10 µM,[28],102%
same,remaining activity at 10 µM,[29],91.4%
same,remaining activity at 10 µM,[30],97.3%
same,remaining activity at 10 µM,[31],106%
same,remaining activity at 10 µM,[32],99.4%
same,remaining activity at 10 µM,[33],110%
